Results from patent US20260183411A1, “TARGETING SORTILIN” (priority 2024, published 2026).
Like-named read-outs stand apart in the source and are kept apart here. Values belong to the compound of their own block, whether it stands above or below them. Where a SMILES comes first, the peptide text is derived from it. [ ]: non-standard residue; d: D form. The star is where a group is joined. Dolaproine = CO[C@@H]([C@@H]1CCCN1)[C@@H](C)C(=O)O; Dil = CC[C@H](C)[C@H](NC)[C@@H](CC(=O)O)OC; X1 = C[C@@H](N*)[C@@H](O)c1ccccc1; NMeV = CN[C@H](C(=O)O)C(C)C

What was measured:
MDA-MB-231 xenograft = assay: MDA-MB-231 murine xenograft efficacy model; type: in vivo, mouse
Method: Murine xenograft experiments were conducted at WuXi AppTec and/or Charles River Laboratories and the care and use of animals was conducted in accordance with the regulations of the Association for Assessment and Accreditation of Laboratory Animal Care (AAALAC). MDA-MB-231 tumor cells (ATCC, Manassas, VA, cat #HTB-26) were grown and maintained in L15 medium supplemented with 10% heat inactivated fetal bovine serum, 1% Antibiotic-Antimycotic, and L-glutamine (2 mM) at 37° C. in an atmosphere in 5% CO2, 95% air. BALB/c Nude, female, 6-8 weeks, weighing approximately 18-22 g were purchased from Vital River Laboratory Animal Technology Co., LTD. Mice were inoculated subcutaneously at the right flank with MDA-MB-231 tumor cells (e.g., triple negative breast cancer cells) (10×10^6) in 0.2 mL of PBS with Matrigel (1:1) for tumor development. Animals were randomized and treatment was started when the average tumor volume reached approximately 150-200 mm^3 for the efficacy study. Dosing volume was adjusted based on body weight and was administered at 10 mL/Kg. […] Free MMAE payload was also tested, and similarly dissolved in 25 mM Histidine 10% sucrose pH 7 and one or more of the following doses, 0.6, 0.06 mg/kg, were administered to the mice i.v. at a QW×4 schedule. Tumor sizes were measured twice weekly in two dimensions using a caliper, and the volume in mm^3 calculated using the formula: V=0.5 a×b^2, where a and b are the long and short diameters of the tumor, respectively. TGI was calculated for each group using the formula: TGI (%)=[1−(Ti−T0)/(Vi−V0)]×100; where Ti is the average tumor volume of a treatment group on a given day, TO is the average tumor volume of the treatment group on the first day of treatment, Vi is the average tumor volume of the vehicle control group on the same day with Ti, and V0 is the average tumor volume of the vehicle group on the first day of treatment.
To characterize the effects of the MMAE payload alone, we included free MMAE at molar equivalency to PDCs, and tested at 0.6 and 0.06 mg/kg, as separate arms.
To characterize the effects of the MMAE payload alone, we included free MMAE at molar equivalency to PDCs, and tested at 0.6 mg/kg.

[1] = Murine serum stability assay; type: in vitro ADME, mouse; conditions: read-out: Murine serum stability assay, T1/2
Method: Serum was drawn from male CD-1 mice by Pharmidex. Lyophilized peptides were solubilized in DMSO and then further diluted into male mouse (CD-1) serum at 37° C. in duplicates. The reaction was incubated at 37° C. and samples extracted at 6 time points: 0, 0.16, 0.5, 1, 3, and 6 hrs. Acetonitrile (ACN) with an internal standard (tolbutamide) was added to stop the incubation. Samples were centrifuged, and the supernatant was analyzed by HPLC-MS/MS for the parent compound.

[2] = mouse, serum, linear peptides, Table 11
[3] = mouse, serum, cyclic peptides, Table 12
[4] = male, CD-1, mouse, mouse serum, linear peptides, Table 11
[5] = male, CD-1, mouse, mouse serum, cyclic peptides, Table 12

Compound: CC[C@H](C)[C@@H]([C@@H](CC(=O)N1CCC[C@H]1[C@H](OC)[C@@H](C)C(=O)N[C@H](C)[C@@H](O)c1ccccc1)OC)N(C)C(=O)[C@@H](NC(=O)[C@@H](NC)C(C)C)C(C)C [Free MMAE, Monomethyl auristatin E, reference compound] (H-[NMeV]V[Dil][Dolaproine]-X1; N-terminus and C-terminus assumed)
- body weight variation (Example 6) (MDA-MB-231 xenograft; PDC at each dose, free MMAE at equivalency to 3 mg/kg PDC): body weight fluctuations corresponding to treatment times
- body weight loss (Example 8) (MDA-MB-231 xenograft; PDCs 3 mg/kg, free MMAE at molar equivalency (0.6 mg/kg)): body weight fluctuations corresponding to treatment times

Compound: CC(C)C[C@H](NC(=O)[C@H](C)NC(=O)[C@@H]1CCCN1C(=O)[C@H](CC(=O)O)NC(=O)[C@H](CCCNC(=N)N)NC(=O)[C@H](CC(C)C)NC(=O)[C@@H]1CCCN1C(=O)[C@H](C)NC(=O)[C@H](CC(=O)O)NC(=O)[C@H](Cc1c[nH]c2ccccc12)NC(=O)[C@H](CCCNC(=N)N)NC(=O)[C@@H]1CCCN1C(=O)[C@H](C)N)C(=O)N[C@@H](CCCNC(=N)N)C(=O)N[C@@H](CCC(N)=O)C(=O)N[C@@H](CC(C)(C)C)C(=O)N[C@@H](CC(C)(C)C)C(=O)O [Arb-SAR-P22]
- half-life [1, 2]: 9.95 min

Compound: CCCC[C@@H]1NC(=O)[C@H](CCCNC(=N)N)NC(=O)[C@H](CCCNC(=N)N)NC(=O)[C@H]([C@@H](C)O)NC(=O)[C@H]([C@@H](C)O)NC(=O)[C@@H](NC(=O)[C@H](CO)NC(=O)[C@H](CCCNC(=N)N)NC(C)=O)CSSC[C@@H](C(=O)N[C@@H](CCCNC(=N)N)C(=O)N[C@@H](CCC(N)=O)C(=O)N[C@H](C(=O)N[C@@H](CC(C)(C)C)C(=O)O)C(C)(C)C)NC(=O)[C@H]([C@@H](C)O)NC(=O)[C@H](C)NC1=O [Arb_cyclic_G14, RSCTTRR(Nle)ATCRQ(B13)(F02)] (HELM PEPTIDE1{[ac].R.S.C.T.T.R.R.[Nle].A.T.C.R.Q.[CC(C)(C)[C@H](N[*:1])C(=O)[*:2]].[CC(C)(C)C[C@H](N[*:1])C(=O)O]}$PEPTIDE1,PEPTIDE1,4:R3-12:R3$$$V2.0)
- half-life [1, 3]: 50.3 min

Compound: CC(C)CC[C@H](NC(=O)[C@H](CCC(N)=O)NC(=O)[C@H](CCCNC(=N)N)NC(=O)[C@H](CC(C)C)NC(=O)[C@H](C)NC(=O)[C@@H]1CCCN1C(=O)[C@H](CC(=O)O)NC(=O)[C@H](CCCNC(=N)N)NC(=O)[C@H](CC(C)C)NC(=O)[C@@H]1CCCN1C(=O)[C@H](C)NC(=O)[C@H](CC(=O)O)NC(=O)[C@H](Cc1c[nH]c2ccccc12)NC(=O)[C@H](CCCNC(=N)N)NC(=O)[C@@H]1CCCN1C(=O)[C@H](C)N)C(=O)N[C@@H](CC(C)(C)C)C(=O)O [Arb-SAR-P17]
- half-life [1, 4]: 12.1 min

Compound: CC(C)C[C@H](NC(=O)[C@H](C)NC(=O)[C@@H]1CCCN1C(=O)[C@H](CC(=O)O)NC(=O)[C@H](CCCNC(=N)N)NC(=O)[C@H](CC(C)C)NC(=O)[C@@H]1CCCN1C(=O)[C@H](C)NC(=O)[C@H](CC(=O)O)NC(=O)[C@H](Cc1c[nH]c2ccccc12)NC(=O)[C@H](CCCNC(=N)N)NC(=O)[C@@H]1CCCN1C(=O)[C@H](C)N)C(=O)N[C@@H](CCCNC(=N)N)C(=O)N[C@@H](CCC(N)=O)C(=O)N[C@H](C(=O)N[C@@H](CC1CCC1)C(=O)O)C(C)(C)C [Arb-SAR-Q15]
- half-life [1, 4]: 16.9 min

Compound: CCCC[C@H](NC(=O)[C@H](CCCNC(=N)N)NC(C)=O)C(=O)N[C@H]1CSSC[C@@H](C(=O)N[C@@H](CCCNC(=N)N)C(=O)N[C@@H](CCC(N)=O)C(=O)N[C@H](C(=O)N[C@@H](CC(C)(C)C)C(=O)O)C(C)(C)C)NC(=O)[C@H](C)NC(=O)[C@@H]2CCCN2C(=O)[C@H](CO)NC(=O)[C@H](CCCNC(=N)N)NC(=O)[C@H]([C@@H](C)CC)NC(=O)[C@@H]2CCCN2C(=O)CNC1=O [Arb_cyclic_G10]
- half-life [1, 3]: 11.2 min

More lines, now with the values ahead:

- half-life [1, 2]: 11.5 min
Compound: CC(C)CC[C@H](NC(=O)[C@H](CCC(N)=O)NC(=O)[C@H](CCCNC(=N)N)NC(=O)[C@H](CC(C)C)NC(=O)[C@H](C)NC(=O)[C@@H]1CCCN1C(=O)[C@H](CC(=O)O)NC(=O)[C@H](CCCNC(=N)N)NC(=O)[C@H](CC(C)C)NC(=O)[C@@H]1CCCN1C(=O)[C@H](C)NC(=O)[C@H](CC(=O)O)NC(=O)[C@H](Cc1c[nH]c2ccccc12)NC(=O)[C@H](CCCNC(=N)N)NC(=O)[C@@H]1CCCN1C(=O)[C@H](C)N)C(=O)N[C@@H](CC1CCC1)C(=O)O [Arb-SAR-Q09]

- half-life [1, 4]: 10.1 min
Compound: CC(C)C[C@H](NC(=O)[C@H](C)NC(=O)[C@@H]1CCCN1C(=O)[C@H](CC(=O)O)NC(=O)[C@H](CCCNC(=N)N)NC(=O)[C@H](CC(C)C)NC(=O)[C@@H]1CCCN1C(=O)[C@H](C)NC(=O)[C@H](CC(=O)O)NC(=O)[C@H](Cc1c[nH]c2ccccc12)NC(=O)[C@H](CCCNC(=N)N)NC(=O)[C@@H]1CCCN1C(=O)[C@H](C)N)C(=O)N[C@@H](CCCNC(=N)N)C(=O)N[C@@H](CCC(N)=O)C(=O)N[C@@H](CC1CCC1)C(=O)N[C@@H](CC(C)(C)C)C(=O)O [Arb-SAR-P24]

- half-life [1, 5]: 30.8 min
Compound: CC(=O)N[C@@H](CCCNC(=N)N)C(=O)N[C@@H](CC(=O)O)C(=O)N[C@H]1CSSC[C@@H](C(=O)N[C@@H](CCCNC(=N)N)C(=O)N[C@@H](CCC(N)=O)C(=O)N[C@H](C(=O)N[C@@H](CC(C)(C)C)C(=O)O)C(C)(C)C)NC(=O)[C@@H]2CCCN2C(=O)[C@@H]2CCCN2C(=O)[C@H](C)NC(=O)[C@H](CCCNC(=N)N)NC(=O)[C@H](CC(C)C)NC(=O)[C@H](CO)NC(=O)[C@H](C)NC1=O [Arb_cyclic_G2]

- half-life [1, 5]: 173 min
Compound: CC(=O)N[C@@H](CCC(=O)O)C(=O)N[C@@H](Cc1c[nH]c2ccccc12)C(=O)N[C@H]1CSSC[C@@H](C(=O)N[C@@H](CCCNC(=N)N)C(=O)N[C@@H](CCC(N)=O)C(=O)N[C@H](C(=O)N[C@@H](CC(C)(C)C)C(=O)O)C(C)(C)C)NC(=O)[C@H]([C@@H](C)O)NC(=O)[C@@H]2CCCN2C(=O)[C@H](Cc2c[nH]cn2)NC(=O)[C@H](CC(N)=O)NC(=O)[C@H](Cc2c[nH]cn2)NC(=O)[C@H](CC(C)C)NC(=O)CNC1=O [Arb_cyclic_F3]

- half-life [1, 5]: 39.1 min
Compound: CCCC[C@@H]1NC(=O)[C@H](CCCNC(=N)N)NC(=O)[C@H](CCCNC(=N)N)NC(=O)[C@H](CC(N)=O)NC(=O)[C@H](CCC(=O)O)NC(=O)[C@@H](NC(=O)[C@H](Cc2c[nH]c3ccccc23)NC(=O)[C@H](CCCNC(=N)N)NC(C)=O)CSSC[C@@H](C(=O)N[C@@H](CCCNC(=N)N)C(=O)N[C@@H](CCC(N)=O)C(=O)N[C@H](C(=O)N[C@@H](CC(C)(C)C)C(=O)O)C(C)(C)C)NC(=O)[C@H]([C@@H](C)O)NC(=O)[C@H](Cc2ccccc2)NC1=O [Arb_cyclic_G23, RWCENRR(Nle)FTCRQ(B13)(F02)]

- half-life [1, 3]: 58.3 min
Compound: CC(=O)N[C@@H](Cc1c[nH]cn1)C(=O)N[C@@H](CC(N)=O)C(=O)N[C@@H](Cc1ccccc1)C(=O)N[C@@H](Cc1ccc(O)cc1)C(=O)N[C@H]1CSSC[C@@H](C(=O)N[C@@H](CCC(N)=O)C(=O)N[C@@H](CCCNC(=N)N)C(=O)N[C@@H](CCC(N)=O)C(=O)N[C@H](C(=O)N[C@@H](CC(C)(C)C)C(=O)O)C(C)(C)C)NC(=O)[C@H](Cc2c[nH]cn2)NC(=O)[C@H](CCCCN)NC(=O)[C@H](CCCNC(=N)N)NC1=O [Arb_cyclic_C22]

- half-life [1, 5]: 46.1 min
Compound: CCCC[C@@H]1NC(=O)[C@@H](NC(=O)[C@H](CCC(N)=O)NC(=O)[C@H](C)NC(C)=O)CSSC[C@@H](C(=O)N[C@@H](CCCNC(=N)N)C(=O)N[C@@H](CCC(N)=O)C(=O)N[C@H](C(=O)N[C@@H](CC(C)(C)C)C(=O)O)C(C)(C)C)NC(=O)[C@H](C)NC(=O)[C@H](CCCNC(=N)N)NC(=O)[C@H](CC(N)=O)NC(=O)[C@H](CCCNC(=N)N)NC(=O)CNC1=O [Arb_cyclic_C5]
